Counter-ions that a name gives are not always drawn. Blank lines part the entries; values can stand above or below the compound they belong to.
Legend:
[1] = target: T1, human dopamine D3 receptors (Homo sapiens, UniProt P35462); assay: Dopamine D3 receptor binding, displacement of [125I]-iodosulpride; details: membranes from HEK-293 cells with stably expressed human D3 receptors, 0.1 nM [125I]-iodosulpride
T1 construct: expressed in transfected cells
Method: (§1) The substance to be tested was dissolved either in methanol/Chremophor® (BASF-AG) or in dimethyl sulfoxide and then diluted with water to the desired concentration.
(§2) Triplicate mixtures were carried out.
The incubation buffer contained 50 mM Tris, 120 mM NaCl, 5 mM KCl, 2 mM CaCl2, 2 mM MgCl2 and 0.1% bovine serum albumin, 10 μM quinolone, 0.1% ascorbic acid (prepared fresh each day). The buffer was adjusted to pH 7.4 with HCl.
(§3) Measurement and Evaluation:
(§4) After incubation at 25° C. for 60 minutes, the mixtures were filtered under vacuum through Whatman GF/B glass fiber filters using a cell harvester. The filters were transferred by a filter transfer system into scintillation vials. After addition of 4 ml of Ultima Gold® (Packard), the samples were shaken for one hour and then the radioactivity was calculated in a beta counter (Packard, Tricarb 2000 or 2200CA). The cp values were converted into dpm by means of a standard quench series with the aid of the instrument's own program.
(§5) Evaluation of the inhibition plots took place by iterative nonlinear regression analysis using the Statistical Analysis System (SAS) similar to the “LIGAND” program described by Munson and Rodbard.

[2] = target: T2, human dopamine D2L receptors (long isoform) (Homo sapiens, UniProt P14416); assay: Dopamine D2L receptor binding, displacement of [125I]-iodospiperone; details: *Ki(D2L)/Ki(D3), HEK-293 membranes, 0.01 nM [125I]-iodospiperone
T2 construct: expressed in transfected cells
Method: as §1, §2
The incubation buffer contained 50 mM Tris, 120 mM NaCl, 5 mM KCl, 2 mM CaCl2, 2 mM MgCl2 and 0.1% bovine serum albumin. The buffer was adjusted to pH 7.4 with HCl.
as §3, §4, §5

T2 sequence (P14416 whole entry, canonical isoform): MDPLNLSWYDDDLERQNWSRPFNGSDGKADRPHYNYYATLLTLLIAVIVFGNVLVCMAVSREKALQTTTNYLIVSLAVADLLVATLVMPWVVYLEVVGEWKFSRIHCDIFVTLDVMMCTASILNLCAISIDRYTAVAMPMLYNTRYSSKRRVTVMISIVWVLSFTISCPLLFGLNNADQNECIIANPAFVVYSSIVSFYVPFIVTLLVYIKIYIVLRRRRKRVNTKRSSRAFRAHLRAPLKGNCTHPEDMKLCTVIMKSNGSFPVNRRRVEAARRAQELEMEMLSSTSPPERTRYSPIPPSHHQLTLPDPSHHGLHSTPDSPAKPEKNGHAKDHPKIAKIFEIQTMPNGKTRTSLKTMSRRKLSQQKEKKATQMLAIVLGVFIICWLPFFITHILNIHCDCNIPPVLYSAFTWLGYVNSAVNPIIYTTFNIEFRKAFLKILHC
T1 sequence (P35462 whole entry): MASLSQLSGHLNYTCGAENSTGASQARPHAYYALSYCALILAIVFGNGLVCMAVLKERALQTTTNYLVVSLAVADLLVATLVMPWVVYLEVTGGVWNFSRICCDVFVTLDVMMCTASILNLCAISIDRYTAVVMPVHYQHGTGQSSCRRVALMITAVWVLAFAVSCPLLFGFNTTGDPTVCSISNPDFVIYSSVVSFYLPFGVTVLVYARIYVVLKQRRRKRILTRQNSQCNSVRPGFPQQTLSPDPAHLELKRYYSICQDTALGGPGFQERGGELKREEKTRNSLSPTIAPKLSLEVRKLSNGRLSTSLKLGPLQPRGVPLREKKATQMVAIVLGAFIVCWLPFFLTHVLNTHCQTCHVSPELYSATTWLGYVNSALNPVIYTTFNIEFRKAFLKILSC

SMILES: Cc1cn(CCCCN2CCN(c3cc(C(F)(F)F)nc(C(C)(C)C)n3)CC2)c(=O)nc1NCc1ccccc1 [Example 11, 4-(Benzylamino)-1-(4-{4-[2-tert-butyl-6-(trifluoromethyl)pyrimidin-4-yl]piperazin-1-yl}butyl)-5-methylpyrimidin-2(1H)-one]
Ki [1]: 3.14 nM | Selectivity D3 vs. D2L* [2]: 65

SMILES: Cc1ccc(-c2ccn(CCCCN3CCN(c4cc(C(F)(F)F)nc(C(C)(C)C)n4)CC3)c(=O)n2)cc1 [Example 66, 4-(2-tert-Butyl-6-trifluoromethylpyrimidin-4-yl)-1-[4-(2-oxo-4-(p-tolyl)-2H-pyrimidin-1-yl)butyl]piperazin-1-ium fumarate]
Ki [1]: 13.5 nM | Selectivity D3 vs. D2L* [2]: 37

SMILES: Cc1ccn(CCCCN2CCN(c3cc(C(F)(F)F)nc(C(C)(C)C)n3)CC2)c(=O)n1 [Example 8, 1-(4-{4-[2-tert-Butyl-6-(trifluoromethyl)pyrimidin-4-yl]piperazin-1-yl}butyl)-4-methylpyrimidin-2(1H)-one]
Ki [1]: 4.4 nM | Selectivity D3 vs. D2L* [2]: 71

SMILES: O=c1nc(-c2ccccc2)ccn1CCCCN1CCN(c2cccc(Cl)c2Cl)CC1 [Example 81, 4-(2,3-Dichlorophenyl)-1-[4-(2-oxo-4-phenyl-2H-pyrimidin-1-yl)butyl]piperazin-1-ium fumarate]
Ki [1]: 2.56 nM | Selectivity D3 vs. D2L* [2]: 94

SMILES: CCCc1cc(N2CCN(CCCCn3ccc(C4CCCCC4)nc3=O)CC2)nc(C(C)(C)C)n1 [Example 100, 4-(2-tert-Butyl-6-propylpyrimidin-4-yl)-1-[4-(4-cyclohexyl-2-oxo-2H-pyrimidin-1-yl)butyl]piperazin-1-ium fumarate]
Ki [1]: 1.38 nM | Selectivity D3 vs. D2L* [2]: 51

SMILES: Cc1cn(CCCCN2CCN(c3cc(C(F)(F)F)nc(C(C)(C)C)n3)CC2)c(=O)n(C)c1=O [Example 25, 1-(4-{4-[2-tert-Butyl-6-(trifluoromethyl)pyrimidin-4-yl]piperazin-1-yl}butyl)-3,5-dimethylpyrimidine-2,4(1H,3H)-dione]
Selectivity D3 vs. D2L* [2]: 34

SMILES: CC(C)(C)c1ccn(CCCCN2CCN(c3cc(C4CC4)nc(C(C)(C)C)n3)CC2)c(=O)n1 [Example 19, 4-tert-Butyl-1-{4-[4-(2-tert-butyl-6-cyclopropylpyrimidin-4-yl)piperazin-1-yl]butyl}pyrimidin-2(1H)-one]
Ki [1]: 1.44 nM | Selectivity D3 vs. D2L* [2]: 96

SMILES: Cc1ccn(CCCCN2CCN(c3cc(C(C)C)nc(C(C)(C)C)n3)CC2)c(=O)n1.Cl [Example 39, 4-(2-tert-Butyl-6-isopropylpyrimidin-4-yl)-1-[4-(4-methyl-2-oxopyrimidin-1 (2H)-yl)butyl]piperazin-1-ium chloride]
Ki [1]: 6.09 nM | Selectivity D3 vs. D2L* [2]: 66

SMILES: CCOc1ccn(CCCCN2CCN(c3cc(C(F)(F)F)nc(C(C)(C)C)n3)CC2)c(=O)n1 [Example 85, 4-(2-tert-Butyl-6-trifluoromethylpyrimidin-4-yl)-1-[4-(4-ethoxy-2-oxo-2H-pyrimidin-1-yl)butyl]piperazin-1-ium fumarate]
Ki [1]: 7.36 nM | Selectivity D3 vs. D2L* [2]: 35

SMILES: CC(C)(C)c1nc(N2CCN(CCCCn3ccc(-c4ccccc4F)nc3=O)CC2)cc(C(F)(F)F)n1 [Example 67, 4-(2-tert-Butyl-6-trifluoromethylpyrimidin-4-yl)-1-{4-[4-(2-fluorophenyl)-2-oxo-2H-pyrimidin-1-yl]butyl}piperazin-1-ium fumarate]
Ki [1]: 10.1 nM | Selectivity D3 vs. D2L* [2]: 39

SMILES: CCCc1cc(N2CCN(C(C)CCCn3cc(C)c(=O)[nH]c3=O)CC2)nc(C(C)(C)C)n1.Cl (centres unmarked) [Example 38, 4-(2-tert-Butyl-6-propylpyrimidin-4-yl)-1-[1-methyl-4-(5-methyl-2,4-dioxo-3,4-dihydropyrimidin-1 (2H)-yl)butyl]piperazin-1-ium chloride]
Ki [1]: 5.33 nM | Selectivity D3 vs. D2L* [2]: 103

SMILES: CCc1ccn(CCCCN2CCN(c3cc(C(F)(F)F)nc(C(C)(C)C)n3)CC2)c(=O)n1 [Example 95, 4-(2-tert-Butyl-6-trifluoromethylpyrimidin-4-yl)-1-[4-(4-ethyl-2-oxo-2H-pyrimidin-1-yl)butyl]piperazin-1-ium fumarate]
Ki [1]: 6.53 nM | Selectivity D3 vs. D2L* [2]: 45

SMILES: CCCc1cc(N2CCN(CCCCn3ccc(O)nc3=O)CC2)nc(C(C)(C)C)n1 [Example 20, 1-{4-[4-(2-tert-Butyl-6-propylpyrimidin-4-yl)piperazin-1-yl]butyl}-4-hydroxypyrimidin-2(1H)-one]
Ki [1]: 1.87 nM | Selectivity D3 vs. D2L* [2]: 108

SMILES: C/C(=C\CN1CCN(c2cc(C(F)(F)F)nc(C(C)(C)C)n2)CC1)Cn1cc(C)c(=O)[nH]c1=O [Example 36, 1-((2E)-4-{4-[2-tert-Butyl-6-(trifluoromethyl)pyrimidin-4-yl]piperazin-1-yl}-2-methylbut-2-en-1-yl)-5-methylpyrimidine-2,4(1H,3H)-dione]
Ki [1]: 3.82 nM | Selectivity D3 vs. D2L* [2]: 209

SMILES: Cn1c(=O)ccn(CCCCN2CCN(c3cc(C(F)(F)F)nc(C(C)(C)C)n3)CC2)c1=O [Example 27, 1-(4-{4-[2-tert-Butyl-6-(trifluoromethyl)pyrimidin-4-yl]piperazin-1-yl}butyl)-3-methylpyrimidine-2,4(1H,3H)-dione]
Selectivity D3 vs. D2L* [2]: 52

Now from value to compound:

Ki [1]: 0.97 nM | Selectivity D3 vs. D2L* [2]: 31
SMILES: CCCc1cc(N2CCN(CCCCn3ccc(-c4cccs4)nc3=O)CC2)nc(C(C)(C)C)n1 [Example 87, 1-{4-[4-(2-tert-Butyl-6-propylpyrimidin-4-yl)piperazin-1-yl]butyl}-4-thiophen-2-yl-1H-pyrimidin-2-one]

Ki [1]: 2.12 nM | Selectivity D3 vs. D2L* [2]: 67
SMILES: Cc1cn(CCCCN2CCN(c3cc(C(C)C)nc(C(C)(C)C)n3)CC2)c(=O)[nH]c1=O.Cl [Example 40, 4-(2-tert-Butyl-6-isopropylpyrimidin-4-yl)-1-[4-(5-methyl-2,4-dioxo-3,4-dihydro-2H-pyrimidin-1-yl)-butyl]piperazin-1-ium chloride]

Ki [1]: 4.87 nM | Selectivity D3 vs. D2L* [2]: 51
SMILES: CCCc1cc(N2CCN(CCCCn3cc(C#N)c(=O)[nH]c3=O)CC2)nc(C(C)(C)C)n1 [Example 47, 1-{4-[4-(2-tert-Butyl-6-propylpyrimidin-4-yl)piperazin-1-yl]butyl}-2,4-dioxo-1,2,3,4-tetrahydropyrimidine-5-carbonitrile]

Ki [1]: 5.44 nM | Selectivity D3 vs. D2L* [2]: 119
SMILES: CC(C)(C)c1nc(N2CCN(CCCCn3cc(C(F)(F)F)c(=O)[nH]c3=O)CC2)cc(C(F)(F)F)n1 [Example 55, 1-{4-[4-(2-tert-Butyl-6-trifluoromethylpyrimidin-4-yl)piperazin-1-yl]butyl}-5-trifluoromethyl-1H-pyrimidine-2,4-dione]

Ki [1]: 0.74 nM | Selectivity D3 vs. D2L* [2]: 150
SMILES: CC(=O)O.CCCc1cc(N2CCN(CCCCn3cc(Cl)c(=O)[nH]c3=O)CC2)nc(C(C)(C)C)n1 [Example 77, 4-(2-tert-Butyl-6-propylpyrimidin-4-yl)-1-[4-(5-chloro-2,4-dioxo-3,4-dihydro-2H-pyrimidin-1-yl)butyl]piperazin-1-ium acetate]

Ki [1]: 0.72 nM | Selectivity D3 vs. D2L* [2]: 77
SMILES: CCCc1cc(N2CCN(CCCCn3ccc(-c4ccco4)nc3=O)CC2)nc(C(C)(C)C)n1 [Example 50, 1-{4-[4-(2-tert-Butyl-6-propylpyrimidin-4-yl)piperazin-1-yl]butyl}-4-furan-2-yl-1H-pyrimidin-2-one]

Ki [1]: 13.1 nM | Selectivity D3 vs. D2L* [2]: 55
SMILES: COc1cc(OC)cc(N2CCN(CCCCn3cc(C)c(=O)[nH]c3=O)CC2)c1 [Example 134, 1-{4-[4-(3,5-Dimethoxyphenyl)piperazin-1-yl]butyl}-5-methyl-1H-pyrimidine-2,4-dione]

Ki [1]: 1.66 nM | Selectivity D3 vs. D2L* [2]: 89
SMILES: CCc1cn(CCCCN2CCN(c3cc(C(F)(F)F)nc(C(C)(C)C)n3)CC2)c(=O)[nH]c1=O [Example 83, 4-(2-tert-Butyl-6-trifluoromethylpyrimidin-4-yl)-1-[4-(5-ethyl-2,4-dioxo-3,4-dihydro-2H-pyrimidin-1-yl)butyl]piperazine 1-fumarate]

Ki [1]: 2.57 nM | Selectivity D3 vs. D2L* [2]: 57
SMILES: Cc1cn(CC(C)CCN2CCN(c3cc(C(F)(F)F)nc(C(C)(C)C)n3)CC2)c(=O)[nH]c1=O (single isomer, unassigned; (-)) [Example 64, (−)-1-{4-[4-(2-tert-Butyl-6-trifluoromethylpyrimidin-4-yl)piperazin-1-yl]-2-methylbutyl}-5-methyl-1H-pyrimidine-2,4-dione]

Ki [1]: 9.25 nM | Selectivity D3 vs. D2L* [2]: 52
SMILES: Cc1cn(CCCC(C)N2CCN(c3cc(C(F)(F)F)nc(C(C)(C)C)n3)CC2)c(=O)[nH]c1=O (centres unmarked) [Example 54, 1-{4-[4-(2-tert-Butyl-6-trifluoromethylpyrimidin-4-yl)piperazin-1-yl]pentyl}-5-methyl-1H-pyrimidine-2,4-dione]

Ki [1]: 3.03 nM | Selectivity D3 vs. D2L* [2]: 103
SMILES: CCCc1cc(N2CCN(C(C)CCCn3cc(C)c(=O)[nH]c3=O)CC2)nc(C(C)(C)C)n1 (single isomer, unassigned; (-)) [Example 76, (−)-1-{4-[4-(2-tert-Butyl-6-propylpyrimidin-4-yl)piperazin-1-yl]pentyl}-5-methyl-1H-pyrimidine-2,4-dione]

Source: patent US8008488B2 (Abbott GmbH & Co. KG, priority 2003, dated 2011)
